According to ChEMBL document CHEMBL1201862, “PubChem BioAssay data set” (2004):
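Following 48 hours of exposure in 96-well plates, responses at five concentrations were used to interpolate endpoints linearly. Here, GI50 denotes the concentration required for 50% inhibition of growth.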 Activity calls are given as the source filed them. Rule as the data show it: active = GI50 up to about 1.1 µM and inactive = higher.

Columns and labels:
Assay in all cases: NCI tumour cell line growth inhibition, 48 h
MDA-N = tested on: MDA-N
IGROV-1 = tested on: IGROV-1
OVCAR-8 = tested on: OVCAR-8
M14 = tested on: M14
HT-29 = tested on: HT-29
SF-295 = tested on: SF-295
BT-549 = tested on: BT-549
MOLT-4 = tested on: MOLT-4
HCC 2998 = tested on: HCC 2998
HOP-62 = tested on: HOP-62
OVCAR-4 = tested on: OVCAR-4
HCT-15 = tested on: HCT-15
RXF 393 = tested on: RXF 393
A498 = tested on: A498
DU-145 = tested on: DU-145
PC-3 = tested on: PC-3
TK-10 = tested on: TK-10
Malme-3M = tested on: Malme-3M
UO-31 = tested on: UO-31

SMILES	GI50 (MDA-N)	GI50 (IGROV-1)	GI50 (OVCAR-8)	GI50 (M14)	GI50 (HT-29)	GI50 (SF-295)	GI50 (BT-549)	GI50 (MOLT-4)	GI50 (HCC 2998)	GI50 (HOP-62)	GI50 (OVCAR-4)	GI50 (HCT-15) [µM]	GI50 (RXF 393)	GI50 (A498)	GI50 (DU-145)	GI50 (PC-3)	GI50 (TK-10)	GI50 (Malme-3M)	GI50 (UO-31)
Cc1cccc2c(=O)c3c(O)cc4c(c3n(C)c12)C=CC(C)(C)O4	35.6 µM (inactive)	> 100 µM (inactive)	> 100 µM (inactive)	28.3 µM (inactive)	4.63 µM (inactive)	25.1 µM (inactive)	23.1 µM (inactive)	29.1 µM (inactive)	> 100 µM (inactive)	> 100 µM (inactive)	43.9 µM (inactive)	18.7	5.93 µM (inactive)	> 100 µM (inactive)	> 100 µM (inactive)	91.8 µM (inactive)	> 100 µM (inactive)	> 100 µM (inactive)	
Cc1ccsc1/C=N/Nc1cc(C)c2ccccc2n1	14.5 µM (inactive)	1.36 µM (inactive)	14.7 µM (inactive)	8.63 µM (inactive)	3.61 µM (inactive)	3.04 µM (inactive)	21 µM (inactive)	9.23 µM (inactive)	14 µM (inactive)	22.3 µM (inactive)	14.6 µM (inactive)	11.4	20.7 µM (inactive)	10.4 µM (inactive)	12.6 µM (inactive)	14.7 µM (inactive)	14.7 µM (inactive)		10.4 µM (inactive)
COc1cc(NS(C)(=O)=O)ccc1NCc1c[nH]c2ccc3nc(C)ccc3c12	41.2 µM (inactive)	73.6 µM (inactive)	50.1 µM (inactive)	56.1 µM (inactive)	49.5 µM (inactive)	48.8 µM (inactive)	> 100 µM (inactive)	2.9 µM (inactive)		55.5 µM (inactive)	44.3 µM (inactive)	37.9	22.5 µM (inactive)	20.3 µM (inactive)	32.1 µM (inactive)	43.9 µM (inactive)	38.7 µM (inactive)	> 100 µM (inactive)	28.6 µM (inactive)
COc1cc(O)c2c(=O)c3cccc(C)c3[nH]c2c1	> 10 µM (inactive)	> 10 µM (inactive)	> 10 µM (inactive)	> 10 µM (inactive)	> 10 µM (inactive)	> 10 µM (inactive)	> 10 µM (inactive)	3.99 µM (inactive)	> 10 µM (inactive)	> 10 µM (inactive)	6.4 µM (inactive)	> 10	> 10 µM (inactive)	9.33 µM (inactive)	> 10 µM (inactive)	> 10 µM (inactive)	> 10 µM (inactive)	> 10 µM (inactive)	
COc1ccc(C2c3cc4c(cc3OC(N3CCOCC3)C2C)OCO4)cc1 (centres undefined)	16.9 µM (inactive)	30.3 µM (inactive)	34.7 µM (inactive)	26.9 µM (inactive)	25.8 µM (inactive)	15.1 µM (inactive)	20.3 µM (inactive)	12 µM (inactive)	22.4 µM (inactive)	22.5 µM (inactive)	37.8 µM (inactive)	24.5	19.1 µM (inactive)	6.03 µM (inactive)	27.7 µM (inactive)	22.3 µM (inactive)	29.1 µM (inactive)	7.38 µM (inactive)	19.9 µM (inactive)
Cc1ccc2c(ccc3[nH]cc(CNc4ccc(NS(C)(=O)=O)cc4)c32)n1	17.5 µM (inactive)	27.8 µM (inactive)	25.7 µM (inactive)	17.6 µM (inactive)	28.3 µM (inactive)	21.8 µM (inactive)	35.4 µM (inactive)	18.6 µM (inactive)		24.2 µM (inactive)	21.7 µM (inactive)	38.5	9.14 µM (inactive)	15.6 µM (inactive)	18.7 µM (inactive)	25 µM (inactive)	37.7 µM (inactive)	18.5 µM (inactive)	37.7 µM (inactive)
CC(C)(C)OC(=O)NCC(=O)NC1CC=CCC1NC(=O)CNC(=O)OC(C)(C)C (centres undefined)	> 100 µM (inactive)	> 100 µM (inactive)	> 100 µM (inactive)		> 100 µM (inactive)	> 100 µM (inactive)	> 100 µM (inactive)	> 100 µM (inactive)	> 100 µM (inactive)	> 100 µM (inactive)	> 100 µM (inactive)	> 100	> 100 µM (inactive)	> 100 µM (inactive)	> 100 µM (inactive)	> 100 µM (inactive)	> 100 µM (inactive)	> 100 µM (inactive)	> 100 µM (inactive)
CN(C)CCCN1c2ccccc2Sc2cnccc21	64.7 µM (inactive)	> 100 µM (inactive)	> 100 µM (inactive)	52.2 µM (inactive)	58.6 µM (inactive)	35.1 µM (inactive)	> 100 µM (inactive)	60 µM (inactive)		41.6 µM (inactive)	93.8 µM (inactive)	> 100	83 µM (inactive)	31 µM (inactive)	> 100 µM (inactive)	> 100 µM (inactive)	42.4 µM (inactive)	> 100 µM (inactive)	> 100 µM (inactive)
O=C(NNS(=O)(=O)c1ccc(Br)cc1)c1ccc(Cl)cc1NC(=O)C12CC3CC(CC(C3)C1)C2	14.2 µM (inactive)	11.9 µM (inactive)	13.6 µM (inactive)	15 µM (inactive)	11.8 µM (inactive)	13.9 µM (inactive)	16.7 µM (inactive)	6.62 µM (inactive)		19.8 µM (inactive)	10.6 µM (inactive)	15.6	15.7 µM (inactive)	15.2 µM (inactive)	14.5 µM (inactive)	15.9 µM (inactive)	12.5 µM (inactive)	14.8 µM (inactive)	11.7 µM (inactive)
c1ccc2c(c1)[C@@H]1O[C@@H]1[C@@]13O[C@@]21[C@H]1O[C@H]1c1ccccc13	15.6 µM (inactive)	12.2 µM (inactive)	15.6 µM (inactive)	15.6 µM (inactive)	20.2 µM (inactive)	15.1 µM (inactive)	16.2 µM (inactive)	10.6 µM (inactive)	16.6 µM (inactive)	15.5 µM (inactive)	11.9 µM (inactive)	19.5	12.6 µM (inactive)	15.7 µM (inactive)	15.3 µM (inactive)	13.1 µM (inactive)	18.1 µM (inactive)	12.7 µM (inactive)	33.4 µM (inactive)
CCN(C(=O)/C=C/c1ccco1)c1ccccc1	> 100 µM (inactive)	> 100 µM (inactive)	> 100 µM (inactive)	> 100 µM (inactive)	> 100 µM (inactive)	> 100 µM (inactive)	> 100 µM (inactive)	53.8 µM (inactive)	> 100 µM (inactive)	> 100 µM (inactive)	> 100 µM (inactive)	> 100	> 100 µM (inactive)	> 100 µM (inactive)	> 100 µM (inactive)	> 100 µM (inactive)	> 100 µM (inactive)		> 100 µM (inactive)
COc1ccc(Cn2nc(OCc3ccccn3)c3cc([N+](=O)[O-])ccc32)cc1	> 100 µM (inactive)	> 100 µM (inactive)	63.1 µM (inactive)	> 100 µM (inactive)	> 100 µM (inactive)	50.9 µM (inactive)	> 100 µM (inactive)	> 100 µM (inactive)	> 100 µM (inactive)	28.1 µM (inactive)		> 100	> 100 µM (inactive)	> 100 µM (inactive)	> 100 µM (inactive)	> 100 µM (inactive)	> 100 µM (inactive)	> 100 µM (inactive)	> 100 µM (inactive)
CCOC(=O)[C@@]1(C(C)=O)CC(C)=C(C)C[S@@+]1[O-]	> 100 µM (inactive)	> 100 µM (inactive)	> 100 µM (inactive)	> 100 µM (inactive)		> 100 µM (inactive)	> 100 µM (inactive)	> 100 µM (inactive)	> 100 µM (inactive)	> 100 µM (inactive)	> 100 µM (inactive)	> 100	> 100 µM (inactive)	> 100 µM (inactive)	> 100 µM (inactive)	> 100 µM (inactive)	> 100 µM (inactive)	> 100 µM (inactive)	> 100 µM (inactive)
Cc1cn([C@H]2C[C@](C)(CO)N(C)O2)c(=O)[nH]c1=O	> 100 µM (inactive)	> 100 µM (inactive)		> 100 µM (inactive)	> 100 µM (inactive)	> 100 µM (inactive)	> 100 µM (inactive)	> 100 µM (inactive)	> 100 µM (inactive)	> 100 µM (inactive)	> 100 µM (inactive)		> 100 µM (inactive)	> 100 µM (inactive)	> 100 µM (inactive)	> 100 µM (inactive)	> 100 µM (inactive)	> 100 µM (inactive)	> 100 µM (inactive)
CCN(CC)C(=S)SC(=S)N(CC)CC	43.4 µM (inactive)	30.5 µM (inactive)	31.6 µM (inactive)	44.5 µM (inactive)		39.8 µM (inactive)	27.3 µM (inactive)	26.4 µM (inactive)	1.93 µM (inactive)	53.7 µM (inactive)	19.9 µM (inactive)	55	36.6 µM (inactive)	47.3 µM (inactive)	55.8 µM (inactive)	38.1 µM (inactive)	> 51.2 µM (inactive)	23.3 µM (inactive)	30.3 µM (inactive)
O=C(O)C(F)(F)C(F)(F)C(F)(F)C(F)(F)C(=O)O	> 100 µM (inactive)	> 100 µM (inactive)	> 100 µM (inactive)	> 100 µM (inactive)	> 100 µM (inactive)	> 100 µM (inactive)	> 100 µM (inactive)		> 100 µM (inactive)	> 100 µM (inactive)	> 100 µM (inactive)	> 100	> 100 µM (inactive)	> 100 µM (inactive)	> 100 µM (inactive)	> 100 µM (inactive)	> 100 µM (inactive)	> 100 µM (inactive)	> 100 µM (inactive)
